Values quoted from earlier work in US20230201166A1, “METHODS FOR TREATING CANCER BY INHIBITING CARM1” (DANA-FARBER CANCER INSTITUTE, INC., priority 2020, published 2023).
Like-named read-outs stand apart in the source and are kept apart here.

Tests used:
[1] = target: T1, CARM1 (Homo sapiens, UniProt Q86X55); settings: read-out: CARM1 ICW IC50; cited from earlier work
T1 sequence (Q86X55 1-608): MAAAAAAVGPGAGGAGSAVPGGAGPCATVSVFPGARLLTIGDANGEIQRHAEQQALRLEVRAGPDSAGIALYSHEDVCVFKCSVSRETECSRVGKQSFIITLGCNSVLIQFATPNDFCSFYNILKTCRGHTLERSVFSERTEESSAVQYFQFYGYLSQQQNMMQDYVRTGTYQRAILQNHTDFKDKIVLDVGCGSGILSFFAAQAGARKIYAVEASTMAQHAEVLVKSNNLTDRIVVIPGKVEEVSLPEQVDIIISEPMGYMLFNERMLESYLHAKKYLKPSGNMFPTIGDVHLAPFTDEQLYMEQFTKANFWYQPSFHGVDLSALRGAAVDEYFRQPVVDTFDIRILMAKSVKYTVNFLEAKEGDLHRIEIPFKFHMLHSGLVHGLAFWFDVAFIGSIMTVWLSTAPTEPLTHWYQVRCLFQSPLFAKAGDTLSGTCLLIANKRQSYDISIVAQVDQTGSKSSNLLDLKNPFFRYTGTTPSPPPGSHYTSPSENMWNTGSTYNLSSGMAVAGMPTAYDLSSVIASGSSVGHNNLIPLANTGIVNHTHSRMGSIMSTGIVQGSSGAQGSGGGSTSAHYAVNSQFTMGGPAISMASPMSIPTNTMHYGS

[2] = target: T1, CARM1; settings: read-out: CARM1 Biochemical IC50; cited from earlier work

Compound	IC50 [1]	IC50 [2]
CNC[C@@H](O)COc1ccc(Cl)c(-c2nc(-c3c(C)noc3C)c(C)c(N3Cc4cnc(N5CCC5)nc4C3)n2)c1 [EPZ025654]	0.011 µM	–
CC(C)n1ncc2c(N3CCOCC3)cc(-c3cccc(OCC(O)CN)c3)nc21 (centres unmarked) [compound 2]	19 µM	–
Cn1cnc2ccc(-c3cccc(OCC(O)CN)c3)nc21 (centres unmarked) [compound 1]	> 20 µM	–
CNC[C@@H](O)COc1cc(-c2nc(-c3c(C)noc3C)c(C)c(N3CC4(CCN(C(=O)OC)CC4)C3)n2)ccc1Cl [compound 3]	> 6.5 µM	> 1 µM
